Results on eight compounds are retold here after patent US6203822A, “Gallium-containing compounds for the treatment of infections caused by intracellular pathogens and pathogens causing chronic pulmonary infection” (priority 1996, dated 2001).

Where two headings read alike, the source gives them in different places.

Data set [1] concerns M. tuberculosis in human alveolar macrophages. The data set can be described thus: M. tuberculosis in human alveolar macrophages, gallium nitrate with or without anti-tuberculous antibiotics. It is filed as cell-based. The following applies: full doses of first line antibiotics, by 24 h. The protocol:
The gallium-containing compounds can also be tested for their ability to inhibit intracellular pathogens in tissue culture assays. In general, in these assays, the macrophages are placed in culture and incubated with the intracellular pathogen at an approximate cell to pathogen ratio of preferably at least 1:1 to about 1:5 cells:pathogen. Exemplary culture conditions are provided in the assays detailed in the Examples. For assays assessing M. tuberculosis infection, freshly adherent monocytes, 12 day-old adherent MDMs, or freshly adherent alveolar macrophages are incubated with M. tuberculosis, MAI or other intracellular bacteria at a ratio of about 1:1 to about 1:5 (phagocyte:bacterium). For M. tuberculosis or MAI, the bacteria are incubated with the phagocyte for 2 hr at 37° C. in RPMI/HEPES media with 2.5% serum or human serum albumin (serum-free). The cells are washed to remove non-adherent bacteria and monolayers are replated with RPMI containing 1% autologous serum (to maintain phagocyte viability but not to sustain extracellular growth of bacteria). Gallium-containing compounds, such as gallium nitrate, with, or without, other agents such as antibiotics, cytokines etc., are added about 24 hr. later and mycobacterial growth in cell lysates is then assessed over the next several days either by the radiometric BACTEC system or by colony-forming units on agarose plates. In each experiment, growth is assessed relative to control monolayers where no drug has been added.
Human alveolar macrophages were purified from healthy non-smoking adult volunteers and placed in monolayer culture. M. tuberculosis infected cells were treated with gallium nitrate as described in Example 2. Antituberculous antibiotics were added to wells alone or with gallium nitrate at 500 μM 24 h after M. tuberculosis infection. Antituberculous antibiotics tested included streptomycin (2.016 μg/ml), isoniazid (0.1 μg/ml), rifampin (2.0 μg/ml), and ethambutol (2.52 μg/ml) and the combination of antibiotics was denoted as SIRE. Antibiotics were obtained in lyophilized form from BACTEC. The antibiotics were reconstituted in sterile water per package instructions. With reference to FIG. 3, SIRE refers to combinations of streptomycin, isoniazid, rifampin and ethambutol while IR refers to combinations of Isoniazid and rifampin.
Infected macrophages were cultured for 24 h, 48 h, or 120 h. Growth index readings of combined supernatants and cell lysates were measured in the BACTEC 460 TB system. […] Since these antibiotics have a number of unpleasant side effects that are reduced at reduced concentrations of the drugs, combined therapies that permit these antibiotics to be administered at lower doses when combined with gallium nitrate is significant and may help to promote better drug compliance in patients infected with M. tuberculosis.

For data set [2] the following is noted: known from literature; cited from earlier work.
The test system of data set [3] is bone cell. The following applies: cancer patients, large scale clinical studies (Todd et al.); cited from earlier work.
Data set [4] has as its system macrophage monolayers (MDMs). The data set can be described thus: Gallium toxicity in uninfected MDM monolayers. It is filed as cell-based, human. The following applies: in most cases, equivalent to untreated controls. The protocol:
To test the potential toxicity of gallium nitrate on the standard macrophage monolayers (MDMs) used in the assays described in this invention, uninfected MDM monolayers were incubated with various concentrations of gallium nitrate in the range used in the studies described in Examples 2 and 3.
There was no immediate difference in monolayer density between MDM monolayers with and without gallium nitrate treatment up to a gallium concentration of 2 mM. Results were based on counting napthol blue macrophage stained nuclei from the monolayer. These numbers directly correlate with the number of cells present. In most cases the integrity of the MDM monolayer in the presence of gallium was maintained for up to 37 days, equivalent to untreated, uninfected control cultures.

In data set [5] the test system is M. tuberculosis strain H37Ra. It is filed as cell-based.
Data set [6] concerns M. tuberculosis in macrophages. It counts as cell-based.
Data set [7] concerns macrophage ferritin and transferrin receptors. To be noted: Byrd, et al.; cited from earlier work.

As to `CC[C@@H](CO)NCCN[C@@H](CC)CO` [ethambutol], in data set [1], the “growth inhibition by full doses of first line antibiotics” value is on record as “quite potent”.
Regarding `[Ga]` [gallium], the tissue accumulation result in data set [2] was “accumulate in cells of mononuclear origin in the liver, kidney, spleen and lymphatic system”. For the same compound, the “effect on bone cell morphology or viability” value in data set [3] is “did not affect bone cell morphology or viability”. In addition, the “time integrity of MDM monolayer maintained in presence of gallium” value in data set [4] was “up to 37 days”.
For the compound `NNC(=O)c1ccncc1` [isoniazid], the “growth inhibition by full doses of first line antibiotics” value in data set [1] is on record as “quite potent”.
Same read-out and setting: under `CO[C@H]1/C=C/O[C@@]2(C)Oc3c(C)c(O)c4c(O)c(c(/C=N/N5CCN(C)CC5)c(O)c4c3C2=O)NC(=O)/C(C)=C\C=C\[C@H](C)[C@H](O)[C@@H](C)[C@@H](O)[C@@H](C)[C@H](OC(C)=O)[C@@H]1C` [rifampin] stands “quite potent”; under `[H]/N=C(/N)N[C@H]1[C@H](O)[C@@H](O)[C@H](O[C@@H]2O[C@@H](C)[C@](O)(C=O)[C@H]2O[C@@H]2O[C@@H](CO)[C@H](O)[C@@H](O)[C@@H]2NC)[C@@H](N/C(N)=N\[H])[C@@H]1O` [streptomycin], “quite potent”.
For “gallium transferrin: Human apotransferrin mixed 1:1 (by molar ratio) with gallium”, in data set [5] (growth index Day 10, broth culture, apotransferrin mixed 1:1 with gallium), the “concentration of gallium with marked inhibition of growth” value turned out to be 75 µM.
Regarding “interferon-γ: Human interferon-γ (Genzyme, Cambridge, Mass.), cytokine”, the “augmentation of gallium nitrate growth inhibition” value in data set [6] (IFN-γ in combination with 0 to about 400 μM gallium nitrate) is “at least 50%”. Further, the “augmentation of gallium nitrate growth inhibition” value in data set [6] (interferon-γ various concentrations (0-1000U), gallium nitrate at 100 μM) is listed as ≥ 50%. In data set [7], the “effect on expression of transferrin receptors” value was “down regulate expression of transferrin receptors” and the “effect on macrophage ferritin levels” value is on record as “down regulate macrophage ferritin levels”.
With “transferrin: control cultures were treated with transferrin alone; Human apotransferrin (Sigma Chemicals)”, in data set [5] (transferrin alone), the “bacterial growth inhibition, control culture” value is on record as “no inhibition in bacterial growth”.
